# Measured values reported in US5538731A, “Cosmetic” (Mikimoto Pharmaceutical Co., Ltd., priority 1992, dated 1996).
# Experiment: Antioxydation test (linoleic acid, thiocyanate method)
# Conditions: 5 mg specimen
# Procedure: In a 50 ml test tube with a screw cap, the following test solution was prepared. […]
# This test solution was allowed to stand in a thermostatic bath at 50° C., while light was shut out. […]
# 12.125 ml of 75% ethanol and 0.125 ml of 30% ammonium thiocyanate were added to 0.125 ml of the test solution, and the solution was stirred and then allowed to stand for 3 minutes. Afterward, 0.125 ml of a 3.5% aqueous HCl solution including 0.02 N ferrous chloride was added thereto, and the solution was stirred and then allowed to stand for 3 minutes. Next, absorbance was measured at a wavelength of 500 nm. A cell length was 10 mm, and a control was prepared by replacing the test solution with water.
substance,measurement,setting,value
Vitamin E,Absorbance at 500 nm After 3 days,"linoleic acid test solution at 50° C., light shut out, water 0.050",0.026
same,Absorbance at 500 nm After 5 days,"linoleic acid test solution at 50° C., light shut out, water 0.103",0.047
same,Absorbance at 500 nm After 7 days,"linoleic acid test solution at 50° C., light shut out, water 0.262",0.070
same,Absorbance at 500 nm After 0 day,"linoleic acid test solution, before placing at 50° C., water 0.014",0.015
